{
  "source": "paper PMC8466728",
  "about": "“DNA Intercalators Inhibit Eukaryotic Ribosomal RNA Synthesis by Impairing the Initiation of Transcription” (Genes, 2021)",
  "key": {"[1]": {"system": "nascent RNA synthesis in HCT116 p53−/− cells", "assay": "Nascent RNA detection in cells by 5EU incorporation (click labelling, confocal microscopy)", "assay_type": "cell-based, human", "conditions": "30 min treatment then 1 h 5EU", "procedure": "Cells were grown until 50–60% confluent on sterilized glass slides (Superfrost® Plus microscope slides, Menzel-Glaser) and then were treated with compounds or vehicle (as indicated) for 30 min, followed by the addition of 5EU (5-Ethynyl-uridine, 1 mM final concentration) and further incubation for 1 h. The following concentrations were used: Actinomycin D (ActD): 3 µM; ethidium bromide (EB): 40 µM; proflavine (Pro): 2 µM; CX5461: 5 µM.\nCells were fixed with 3.7% paraformaldehyde and permeabilized with 0.5% Triton X-100 in PBS. Nascent RNA was fluorescently labelled using Click-IT® Cell Reaction Buffer Kit (Invitrogen, Waltham, MA, USA) supplemented with Cy5 Azide (Sigma Aldrich) according to manufacturer’s instruction. Nuclei were stained with Hoechst 33342 and images were acquired with a Leica TCS SP5 confocal microscope equipped with an x63 oil-filled objective. Leica Application Suite X (LAS X) software was used for quantification of 5EU incorporation. Box-and-whisker plots of quantification of 5EU incorporation were obtained with Excel. They show the median, the 25% and 75% quantiles, as well as outliers.\nAlthough we see no significant effect of the intercalators and grove-binders on specific Pol-II transcription in vitro we performed experiments aiming to explore effect of these compounds on general level of Pol-II/III transcription in cells. To this end we used two approaches. Firstly, we measure the level of nascent RNA synthesis in […] p53^−/− cells treated with proflavine, ethidium bromide, CX-5461 (specific inhibitor of Pol-I transcription) at concentrations sufficient to inhibit about 90% of Pol-I transcription as shown in Figure 5A. As a control we used high concentration of ActD (3µM) that inhibits activity of all […] polymerases. Cells were treated with the selected compounds or a vehicle for 30 min and then 5EU (5-Ethynyl-uridine) was added and incubation was continued for another hour. During this time, 5EU is incorporated into any newly synthesized RNA, and the level of incorporation can later be assessed using a combination of “click” approach and confocal microscopy."}, "[2]": {"system": "Pol II/III transcription in HCT116 p53−/− cells", "assay": "Pol-II (18 house-keeping genes) and Pol-III transcripts by qPCR in p53 null cells", "assay_type": "cell-based, human", "conditions": "30 min", "procedure": "(§1) Cells were grown until 70% confluent and then treated with compounds for 30 min. The following concentrations were used: ActD: AD1–3 nM; AD2–3 µM; Camptothecin (CPT): 8 µM; ethidium bromide (EB): 40 µM; crystal violet (CV): 20 µM; Pro: 2 µM; CX5461: 5 µM. RNA was purified using the RNeasy purification kit (Qiagen) following the manufacturer’s instructions and the RNA concentration was determined spectroscopically. A total 1 µg of RNA was converted to cDNA using the High Capacity RNA-to-cDNA reverse transcriptase kit (Applied Biosystems, Waltham, MA, USA). Then 47/45S pre-rRNA levels were analyzed on the LighCycler 480 thermocycler (Roche) using primers and conditions described previously.\n(§2) Pol-II and Pol-III transcripts were analyzed as described previously. All signals were normalized to 18S rRNA level. The standard deviation was calculated from three independent experiments.\n(§3) As a complimentary approach we also measured the effect of intercalators and grove binders on transcription by Pol-II and Pol-III by determining relative expression levels of 18 house-keeping genes (the Human Housekeeper reference gene plate, Roche) and of three Pol-III dependent genes in intercalator treated and untreated HCT116 p53^−/− and p53^+/+ cells as described previously."}, "[3]": {"system": "Pol-II transcription in HCT116 p53+/+ cells", "assay": "Pol-II transcripts (18 house-keeping genes) by qPCR in cells expressing wt p53", "assay_type": "cell-based, human", "conditions": "cells expressing wt p53, 30 min; concentrations as Figure S2", "procedure": "as §1, §2, §3\nFigure S2. […] Total RNA was isolated, reverse transcribed and analysed by qPCR. […]"}, "[4]": {"system": "Pol-I transcription (rRNA synthesis) in HCT116 p53−/− cells", "assay": "IC50 of Pol-I transcription (rRNA synthesis) in cells", "assay_type": "cell-based, human", "conditions": "Homo sapiens", "procedure": "as §1\nNext, we determined IC50 concentrations for EtBr, Pro, CPT, DAPI and CV in cells by measuring the level of Pol-I transcription at various compound concentrations (Table 2). For this assay we used the HCT116 p53^−/− cell line to avoid any effect of p53 dependent repression of Pol-I transcription."}, "[5]": {"system": "Pol-I specific transcription", "assay": "Pol-I specific transcription in vitro with or without Top 1 (purified GTFs or HeLa NE; immobilized linear or supercoiled template)", "assay_type": "biochemical, human", "conditions": "GTFs lacking Top 1 + immobilized linear template, HeLa NE + supercoiled plasmid", "procedure": "(§4) Specific Pol I driven transcription reactions were performed as described using 200 ng of supercoiled plasmid DNA or immobilized rDNA promoter. Reactions were supplemented with 1 µL HeLa nuclear extract or with highly purified general transcription factors (GTF: 2 µL SL1, 2.5 µL Pol-I and 0.1 µL UBF). S1 nuclease protection was performed as described with a 60 bp ^32P-5′-end labelled oligonucleotide containing a sequence identical to the region between −20 and +40 of the template strand in the human rRNA gene promoter. […] The standard deviations were calculated from three independent experiments."}, "[6]": {"system": "Pol-I specific transcription (human rRNA gene promoter)", "assay": "In vitro Pol-I specific (promoter-driven) transcription assay, HeLa nuclear extract, S1 nuclease protection", "assay_type": "biochemical", "conditions": "1 µL HeLa nuclear extract, 100 ng plasmid DNA containing rRNA promoter, triplicates", "procedure": "as §4, with “Specific Pol I driven transcription reactions were performed as described using 200 ng of supercoiled plasmid DNA or immobilized rDNA promoter.” left out\nWe tested a range of DNA intercalators and minor/major groove binders for the potential to inhibit Pol-I and determined IC50 for each drug using an in vitro Pol-I specific transcription assay. This assay primarily measures the efficiency of the initial stages of transcription which include preinitiation complex (PIC) formation, first phosphodiester bond synthesis and promoter clearance (see reviews and for a detailed description of the Pol-I transcription cycle). The reactions were supplemented with supercoiled rDNA template and HeLa nuclear extract (NE) and the level of specific transcript was determined by S1 nuclease protection assay as described."}, "[7]": {"system": "Pol-I transcription (47/45S pre-rRNA) in HCT116 p53−/− cells", "assay": "47/45S pre-rRNA level in cells by qPCR", "assay_type": "cell-based, human", "conditions": "30 min, CPT 8 µM, EB 40 µM, CV 20 µM, Pro 2 µM, CX5461 5 µM (Figure 5A)", "procedure": "as §1, §2"}, "[8]": {"system": "UBF occupancy at the rDNA, HCT116 p53−/− cells", "assay": "ChIP of the rDNA repeat: UBF occupancy", "assay_type": "cell-based, human", "conditions": "30 min at IC50 in cells: EB 9.16 µM; CV 5 µM; Pro 0.5 µM", "procedure": "ChIP assays were carried out as described previously. In brief, cells were grown until 70% confluent, then treated with compounds for 30 min. The following concentrations were used: ethidium bromide (EB)—9.16 µM; crystal violet (CV)—5 µM; proflavine (Pro)—0.5 µM. Cells were cross-linked with formaldehyde (final concentration 1%) for 10 min, and the cross-linking stopped by the addition of glycine (final concentration 0.125 M) for 5 min. Cross-linked chromatin was sheared using a Biorupter (Diagenode, Liege, Belgium) until 300-base pair average size. Immunoprecipitation was carried out using chromatin isolated from 1 × 10^6 cells, antibodies listed in Supplementary Table S2 and 30 μL of Protein A/Protein G magnetic beads (Invitrogen). Purified immunoprecipitated DNA was analyzed by two tetraplex quantitative PCR panels designed for eight regions of the rDNA repeat; promoter, intergenic spacer 4 (IGS4), 18S, 5.8S, 28S, terminator, IGS1, and 5′externally transcribed spacer (ETS). […] Signal were quantified using internal standards and specific signals were calculated as a difference between the signals from the specific antibody and from the negative control (an appropriate IgG). Results were expressed as the amount relative to input chromatin and normalized to control IgG levels, with the standard deviations calculated from three independent ChIP experiments. […]"}},
  "note": "pIC50: −log10 of the molar value. Like-named read-outs stand apart in the source and are kept apart here. Starred links: 1 amine or outer side, 2 acyl side, 3 side chain; linkers in the order of their positions; H or OH if unused. Positions of bridges follow the written chain, without caps; N, C: chain ends. Non-standard residues stand in square brackets, D forms with d. Residues, ends and D or L forms follow the SMILES beside them. Chains are numbered I, II in the order given. Actinocin(9to1) = Cc1c2oc3c(C)ccc(C(=O)[*:1])c3nc-2c(C(=O)[*:2])c(N)c1=O; NMeV = CN[C@H](C(=O)O)C(C)C; Sar = CNCC(=O)O",
  "data": [
    {"compound": "Cc1c2oc3c(C)ccc(C(=O)N[C@@H]4C(=O)N[C@H](C(C)C)C(=O)N5CCC[C@H]5C(=O)N(C)CC(=O)N(C)[C@@H](C(C)C)C(=O)O[C@@H]4C)c3nc-2c(C(=O)N[C@@H]2C(=O)N[C@H](C(C)C)C(=O)N3CCC[C@H]3C(=O)N(C)CC(=O)N(C)[C@@H](C(C)C)C(=O)O[C@@H]2C)c(N)c1=O", "note": "[ActD, Actinomycin D] (I: T[dV]P[Sar][NMeV] / II: T[dV]P[Sar][NMeV]; ester I:1-I:C, II:1-II:C; linker I:N-II:N via Actinocin(9to1))", "values": [
      {"measurement": "5EU incorporation (RNA synthesis)", "setting": "[1]; 3 μM", "result": "almost completely abolished"},
      {"measurement": "effect on Pol II/III transcription", "setting": "[2]; AD1 3 nM ActD, CPT 8 µM, EB 40 µM, CV 20 µM, Pro 2 µM", "result": "did not repress"},
      {"measurement": "transcription of Pol-II targets", "setting": "[2]; high concentration of ActD (AD2, 3 µM)", "result": "causes repression of transcription of all Pol-II targets"},
      {"measurement": "effect on mRNA levels of the genes tested", "setting": "[3]", "result": "quite significant"}
    ]},
    {"compound": "CC[C@@]1(O)C(=O)OCc2c1cc1n(c2=O)Cc2cc3ccccc3nc2-1", "note": "[Camptothecin]", "values": [
      {"measurement": "pIC50", "setting": "[4]; HCT-116, read-out: IC50 (rRNA Synthesis)", "result": 5.70},
      {"measurement": "effect on Pol-I specific transcription", "setting": "[5]", "result": "represses Pol-I specific transcription under all conditions"}
    ]},
    {"compound": "Nc1ccc2cc3ccc(N)cc3nc2c1", "note": "[Proflavine, proflavine]", "values": [
      {"measurement": "pIC50", "setting": "[6]", "result": 6.46},
      {"measurement": "pIC50", "setting": "[4]; HCT-116, p53 null HCT116 cells, triplicates, total RNA analyzed by S1 nuclease protection assay, read-out: IC50 (rRNA Synthesis)", "result": 6.32},
      {"measurement": "distribution (nucleolar localization) of nascent RNAs", "setting": "[1]; EB 40 µM, Pro 2 µM, CX5461 5 µM", "result": "affected the distribution of nascent RNAs"},
      {"measurement": "inhibition of all transcription (5EU incorporation), effect of ActD set to be 100% inhibition", "setting": "[1]; HCT116 p53−/− cells, EB 40 µM, Pro 2 µM, CX5461 5 µM", "result": 48, "unit": "%"},
      {"measurement": "inhibition of Pol-I transcription", "setting": "[7]", "result": "about 90%"},
      {"measurement": "UBF occupancy", "setting": "[8]", "result": "affected"}
    ]}
  ]
}
